In patent US11001590B2, “Pyrazolopyrimidine derivatives” (BAYER ANIMAL HEALTH GMBH, priority 2016, dated 2021):

Experiments:
[1] = log P by HPLC on reversed phase columns (Method L0; [a] acidic, [b] neutral range)
Protocol: Calibration was done with straight-chain alkan-2-ones (with 3 to 16 carbon atoms) with known log P values (measurement of log P values using retention times with linear interpolation between successive alkanones). Lambda-max-values were determined using UV-spectra from 200 nm to 400 nm and the peak values of the chromatographic signals.

[2] = system: Cooperia curticei; experiment: In vitro assay 5: Cooperia curticei (COOPCU), larval mortality; details: 120 h, read-out: activity (percentage of larval mortality)
Protocol: In Vitro Assay 5: Cooperia curticei (COOPCU)
Solvent: Dimethyl Sulfoxide
Approximately 40 nematode larvae (Cooperia curticei) are transferred into a test tube containing the compound solution.
After 5 days percentage of larval mortality is recorded. 100% efficacy means all larvae are killed; 0% efficacy means no larvae are killed.

[3] = biological target: C. elegans Slo-1a (Caenorhabditis elegans, UniProt Q95V25); experiment: In vitro assay 1: C. elegans Slo-1a, action at a recombinant C. elegans CHO cell line (membrane potential measurement)
[4] = system: Litomosoides sigmodontis third-stage larvae; experiment: In vitro assay 7: Litomosoides sigmodontis L3 (LTMOSI), motility; details: 72 h, reduction of motility vs negative control, 72 h incubation
[5] = system: Dirofilaria immitis third-stage larvae; experiment: In vitro assay 4: Dirofilaria immitis (DIROIM L4), motility of larvae; details: 72 h
[6] = system: Dirofilaria immitis microfilariae; experiment: In vitro assay 3: Dirofilaria immitis microfilariae (DIROIM L1), motility; details: 72 h, reduction of motility vs negative control, 72 h incubation
[7] = system: Haemonchus contortus; experiment: In vitro assay 6: Haemonchus contortus (HAEMCO), larval mortality
Protocol: In Vitro Assay 6: Haemonchus contortus (HAEMCO)
Solvent: dimethyl sulfoxide
Approximately 40 larvae of the red stomach worm (Haemonchus contortus) are transferred into a test tube containing compound solution.
After 5 days the percentage of larval mortality is recorded. 100% efficacy means all larvae are killed, 0% efficacy means no larvae are killed.

[8] = system: Nippostrongylus brasiliensis; experiment: In vitro assay 2: Nippostrongylus brasiliensis (NIPOBR), acetylcholine esterase readout; details: adult worms, read-out: activity (reduction of AChE compared to negative control); for inhibition at 1 µg/mL: 1 μg/ml (1 ppm); for inhibition at 10 µg/mL: 10 μg/ml (10 ppm)
Protocol: In Vitro Assay 2: Nippostronqylus Brasiliensis (NIPOBR)
Adult Nippostrongylus brasiliensis were washed with saline buffer containing 100 U/ml penicillin, 0.1 mg/ml streptomycin and 2.5 μg/ml amphotericin B. Test compounds were dissolved in DMSO and worms were incubated in medium in a final concentration of 10 μg/ml (10 ppm) respectively 1 μg/ml (1 ppm). An aliquot of the medium was used to determine the acetylcholine esterase activity in comparison to a negative control. The principle of measuring acetylcholine esterase as readout for anthelmintic activity was described in Rapson et al (1986) and Rapson et al (1987).

[9] = Haemonchus contortus, 120 h, read-out: activity (percentage of larval mortality)

Sequence of C. elegans Slo-1a (Q95V25 whole entry): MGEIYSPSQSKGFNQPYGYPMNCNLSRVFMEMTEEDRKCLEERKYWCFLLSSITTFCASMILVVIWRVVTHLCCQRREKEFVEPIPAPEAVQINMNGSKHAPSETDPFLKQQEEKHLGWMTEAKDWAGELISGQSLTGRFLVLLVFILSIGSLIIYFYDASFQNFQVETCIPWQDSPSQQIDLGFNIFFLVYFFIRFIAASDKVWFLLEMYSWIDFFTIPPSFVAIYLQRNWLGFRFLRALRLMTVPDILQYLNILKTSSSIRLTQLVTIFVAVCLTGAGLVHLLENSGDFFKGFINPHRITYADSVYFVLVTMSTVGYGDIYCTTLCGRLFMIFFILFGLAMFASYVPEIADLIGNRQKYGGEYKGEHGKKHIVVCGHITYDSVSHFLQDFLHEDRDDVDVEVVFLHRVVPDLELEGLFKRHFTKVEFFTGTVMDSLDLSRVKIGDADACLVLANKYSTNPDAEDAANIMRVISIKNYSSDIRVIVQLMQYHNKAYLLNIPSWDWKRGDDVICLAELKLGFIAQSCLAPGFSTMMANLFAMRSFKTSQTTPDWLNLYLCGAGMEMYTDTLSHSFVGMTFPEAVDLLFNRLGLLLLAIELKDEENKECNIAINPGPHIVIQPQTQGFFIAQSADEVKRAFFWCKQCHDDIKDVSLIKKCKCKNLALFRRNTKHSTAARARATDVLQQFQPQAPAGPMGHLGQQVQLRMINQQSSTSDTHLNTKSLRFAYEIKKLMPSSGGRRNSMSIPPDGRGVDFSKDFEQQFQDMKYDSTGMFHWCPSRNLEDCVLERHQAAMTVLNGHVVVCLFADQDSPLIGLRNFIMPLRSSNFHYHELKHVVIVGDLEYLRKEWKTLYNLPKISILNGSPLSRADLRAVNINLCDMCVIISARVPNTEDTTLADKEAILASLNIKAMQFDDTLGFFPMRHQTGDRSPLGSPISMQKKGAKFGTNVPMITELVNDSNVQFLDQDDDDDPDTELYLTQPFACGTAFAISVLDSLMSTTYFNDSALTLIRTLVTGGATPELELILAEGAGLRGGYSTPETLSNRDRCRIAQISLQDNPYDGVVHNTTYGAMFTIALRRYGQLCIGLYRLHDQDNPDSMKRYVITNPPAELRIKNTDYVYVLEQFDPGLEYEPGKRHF

| SMILES | chromatographic logP [1] | mortality at 20 ppm [2] | EC50 [3] | EC50 [4] | EC50 [5] | EC50 [6] | mortality at 20 ppm [7, 9] | inhibition at 1 µg/mL [8] | inhibition at 10 µg/mL [8] | mortality at 4 ppm [7, 9] | pE50 ([3]; CHO cells expressing C. elegans Slo-1a, voltage sensitive dye, FLIPR Tetra, negative decadic logarithm of EC50) | activity (percentage of larval mortality) ([7]; application rate 20 ppm, after 5 days) |
| --- | --- | --- | --- | --- | --- | --- | --- | --- | --- | --- | --- | --- |
| COc1c(F)ccc(-c2c(C)nn3c(C(C)C)c(C(=O)N[C@H]4CCOc5ccccc54)cnc23)c1F [Example 192] | 4.32 | 100% | 0.398 nM | < 0.1 µg/mL | < 0.1 µg/mL | < 0.1 µg/mL | 90% | > 80% | > 80% |  |  |  |
| Cc1nn2c(C(C)C)c(C(=O)N[C@H]3CCOc4ccccc43)cnc2c1-c1cc(Cl)cc(Cl)c1Cl [Example 234] | 5.48 | 90% | 1.26 nM | < 0.1 µg/mL | < 0.1 µg/mL | < 0.1 µg/mL | 90% | > 80% | > 80% |  |  |  |
| Cc1nn2c(C(C)C)c(C(=O)N[C@H]3CCOc4ccccc43)cnc2c1-c1c(F)ccc(F)c1F [Example 253] | 4.32 |  | 1.26 nM | < 0.1 µg/mL | < 0.1 µg/mL | < 0.1 µg/mL |  |  | > 80% | 80% |  |  |
| Cc1nn2c(C(C)C)c(C(=O)N[C@H]3CCOc4ccccc43)cnc2c1-c1c(F)ccc(Cl)c1F [Example 255] | 4.72 | 90% | 1.58 nM | < 0.1 µg/mL | < 0.1 µg/mL | < 0.1 µg/mL | 90% | > 80% | > 80% |  |  |  |
| Cc1nn2c(C(C)C)c(C(=O)N[C@H]3CCOc4ccccc43)cnc2c1-c1cc(Cl)ccc1F [Example 256] | 4.87 | 80% | 2.51 nM | < 0.1 µg/mL | < 0.1 µg/mL | < 0.1 µg/mL | 80% |  |  |  |  |  |
| Cc1nn2c(C(C)C)c(C(=O)N[C@H]3CCOc4ccccc43)cnc2c1-c1cccc(N(C)C)c1F [Example 260] | 4.18 | 90% | 3.16 nM |  |  | < 1 µg/mL | 80% | > 80% | > 80% |  |  |  |
| Cc1nn2c(C3CC3)c(C(=O)N[C@H]3CCc4ccccc43)cnc2c1-c1c(F)ccc(Cl)c1F [Example 436] | 4.18 | 80% | 1.58 nM | < 0.1 µg/mL | < 0.1 µg/mL | < 0.1 µg/mL | 80% | > 80% | > 80% |  |  |  |
| Cc1nn2c(C(C)C)c(C(=O)N[C@H]3CCOc4ccccc43)cnc2c1-c1cccc2c1CCN2C [Example 461] | 4.11 | 90% | 2 nM | < 0.1 µg/mL | < 0.1 µg/mL | < 1 µg/mL | 80% | > 80% | > 80% |  |  |  |
| Cc1nn2c(C3CC3)c(C(=O)N[C@H]3CCOc4ccccc43)cnc2c1-c1cccc2c1CCN2C [Example 474] | 3.25 | 90% | 6.31 nM | < 0.1 µg/mL | < 0.1 µg/mL | < 1 µg/mL |  |  | > 80% |  |  |  |
| CCc1c(C(=O)N[C@H]2CCOc3ccccc32)cnc2c(-c3c(F)ccc(Cl)c3F)c(C)nn12 [Example 489] |  |  |  |  |  |  |  |  |  |  | 8.8 | 90% |
| Cc1nn2c(N3CCOCC3)c(C(=O)N[C@H]3CCOc4ccccc43)cnc2c1-c1cccc(C(F)(F)F)c1Cl [Example 532] | 5.59 | 100% | 1 nM |  |  | < 0.1 µg/mL | 90% |  |  |  |  |  |
| CNc1c(C(=O)N[C@H]2CCOc3ccccc32)cnc2c(-c3cccc(Cl)c3Cl)c(C)nn12 [Example 548] | 4.18 | 90% | 6.31 nM |  |  | < 0.1 µg/mL | 90% |  |  |  |  |  |
